# Laboratory results: article PMC12333015, “Profiling the Impact of mGlu7/Elfn1 Protein Interactions on the Pharmacology of mGlu7 Allosteric Modulators” (ACS Chemical Neuroscience, 2025)
# What was measured:
# rat mGlu7 = molecular target: T1, rat mGlu7 (Rattus norvegicus, UniProt P35400); experiment: Thallium flux assay, mGlu7/GIRK HEK293 cells cocultured with pcDNA3 vector control cells; assay type: cell-based; details: L-AP4 pEC50 ± SEM, pcDNA, DMSO vehicle
# T1 construct: expressed in transfected cells; host or cells: HEK293A cells stably expressing mGlu7 and GIRK1/2
# T1 sequence (P35400 35-915): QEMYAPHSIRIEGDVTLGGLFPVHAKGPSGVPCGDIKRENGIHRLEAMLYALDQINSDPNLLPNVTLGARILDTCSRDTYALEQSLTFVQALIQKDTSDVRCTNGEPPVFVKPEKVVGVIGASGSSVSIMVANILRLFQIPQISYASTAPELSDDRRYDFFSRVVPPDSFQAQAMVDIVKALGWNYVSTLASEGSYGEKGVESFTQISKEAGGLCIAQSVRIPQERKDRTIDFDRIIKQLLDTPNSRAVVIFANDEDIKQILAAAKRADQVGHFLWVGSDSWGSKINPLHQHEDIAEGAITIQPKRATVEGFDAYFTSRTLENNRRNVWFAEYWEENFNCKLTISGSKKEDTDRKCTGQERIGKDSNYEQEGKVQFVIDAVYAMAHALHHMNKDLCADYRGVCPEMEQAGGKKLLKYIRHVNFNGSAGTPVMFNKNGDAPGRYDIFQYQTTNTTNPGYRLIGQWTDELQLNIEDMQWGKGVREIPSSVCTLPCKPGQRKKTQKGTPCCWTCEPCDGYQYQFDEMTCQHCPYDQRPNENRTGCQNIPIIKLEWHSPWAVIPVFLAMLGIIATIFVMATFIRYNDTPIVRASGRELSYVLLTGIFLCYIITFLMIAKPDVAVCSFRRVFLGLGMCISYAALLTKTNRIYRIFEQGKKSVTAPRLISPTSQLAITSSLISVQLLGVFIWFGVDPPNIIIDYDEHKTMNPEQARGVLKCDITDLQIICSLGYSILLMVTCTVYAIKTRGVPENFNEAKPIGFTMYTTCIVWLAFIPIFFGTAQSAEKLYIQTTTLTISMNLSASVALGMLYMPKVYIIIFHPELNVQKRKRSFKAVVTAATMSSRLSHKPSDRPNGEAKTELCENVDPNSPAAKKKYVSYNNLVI
# Excerpt: (§1) We began our evaluation of mGlu7 ligands in the presence and absence of Elfn1 by using a coculture system as previously described , with several modifications (Figure ). Cells expressing rat mGlu7 and coexpressing G protein inwardly rectifying potassium (GIRK) channels 1 and 2 were cocultured with cells expressing either an empty pcDNA3 vector control or a plasmid containing Elfn1 in the pcDNA3 backbone. We then evaluated the activity of the orthosteric agonist L-AP4 and measured effects on maximal response and pEC50. All responses were normalized to the maximal effect of L-AP4 in the presence of the pcDNA3 control plasmid.
# (§2) 2 Assay design and workflow. (Left panel) Cells expressing rat mGlu7/GIRK (pink) were cocultured with pcDNA3 (blue) or Elfn1 (purple). […] (Right panel) The effect on the concentration–response curve in the presence (purple) or absence (blue) of Elfn1 can be seen by a change in efficacy, potency, and/or basal response.
# (§3) HEK293A cells stably expressing mouse Elfn1 or pcDNA3 were maintained in growth medium containing 90% Dulbecco’s Modified Eagle Media (DMEM), 10% fetal bovine serum (FBS), 100 units/mL penicillin/streptomycin, 20 mM HEPES, 1 mM sodium pyruvate, 2 mM L-glutamine, 1× nonessential amino acids, and 700 μg/mL G418 sulfate. HEK mGlu7/GIRK cells were maintained in a growth medium with 90% DMEM/F12, 10% dialyzed FBS, 100 units/mL penicillin/streptomycin, 20 mM HEPES, 1 mM sodium pyruvate, 2 mM L-glutamine, 1× nonessential amino acids, 700 μg/mL G418 sulfate, and 600 ng/mL puromycin. All cell culture reagents were purchased from Invitrogen (Carlsbad, CA).
# (§4) Thallium flux assays were performed as previously described. A mixture of HEK293A mGlu7/GIRK cells and pcDNA3 or Elfn1-expressing HEK293A cells (5000/15,000 cells/20 μL/well for agonist and PAM experiments; 7500/15,000 cells/20 μL/well for NAM experiments) was seeded in 384-well, amine-coated assay plates (Greiner Bio-One, Monroe, NC). Cells were incubated overnight in a humidified 5% CO2 cell culture incubator at 37 °C. […] Following a 1 h incubation at room temperature, the dye loading solution was replaced with 20 μL/well assay buffer and the plates were loaded into a Hamamatsu FDSS 7000 (Bridgewater, NJ). […] Thallium flux data were analyzed by first dividing each point in each wave by the first point in that wave and then subtracting the average of the vehicle control response. The slopes of these vehicle control-subtracted waves were calculated over ten data points beginning 2 s after thallium stimulus addition and fit to a three-parameter logistic equation in GraphPad Prism (La Jolla, CA). In most cases, the final data were normalized to the response of the mGlu7/pcDNA3 with vehicle and 5 mM L-AP4 unless otherwise noted. Potency (pEC50) and maximum responses (E max) induced by compounds were determined using a four-parameter logistical equation in Prism. Basal activity was calculated with data points at the three lowest test concentrations. Maximum activity was calculated with data points at two highest concentrations. All experiments were replicated at least three times in duplicate or triplicate.
# mGlu7/Elfn1 = molecular target: T2, mGlu7/Elfn1 (Rattus norvegicus, UniProt P35400); experiment: Thallium flux assay, mGlu7/GIRK HEK293 cells cocultured with Elfn1-expressing cells; assay type: cell-based, mouse Elfn1; details: for EC50: L-AP4 pEC50 ± SEM, Elfn1, DMSO vehicle
# T2 construct: expressed in transfected cells; host or cells: HEK293A mGlu7/GIRK cells cocultured with HEK293A polyclonal cells stably expressing Elfn1-Myc (pcDNA3)
# T2 sequence (P35400 35-915): as above
# T2 sequence (Q8C8T7 26-828 partner): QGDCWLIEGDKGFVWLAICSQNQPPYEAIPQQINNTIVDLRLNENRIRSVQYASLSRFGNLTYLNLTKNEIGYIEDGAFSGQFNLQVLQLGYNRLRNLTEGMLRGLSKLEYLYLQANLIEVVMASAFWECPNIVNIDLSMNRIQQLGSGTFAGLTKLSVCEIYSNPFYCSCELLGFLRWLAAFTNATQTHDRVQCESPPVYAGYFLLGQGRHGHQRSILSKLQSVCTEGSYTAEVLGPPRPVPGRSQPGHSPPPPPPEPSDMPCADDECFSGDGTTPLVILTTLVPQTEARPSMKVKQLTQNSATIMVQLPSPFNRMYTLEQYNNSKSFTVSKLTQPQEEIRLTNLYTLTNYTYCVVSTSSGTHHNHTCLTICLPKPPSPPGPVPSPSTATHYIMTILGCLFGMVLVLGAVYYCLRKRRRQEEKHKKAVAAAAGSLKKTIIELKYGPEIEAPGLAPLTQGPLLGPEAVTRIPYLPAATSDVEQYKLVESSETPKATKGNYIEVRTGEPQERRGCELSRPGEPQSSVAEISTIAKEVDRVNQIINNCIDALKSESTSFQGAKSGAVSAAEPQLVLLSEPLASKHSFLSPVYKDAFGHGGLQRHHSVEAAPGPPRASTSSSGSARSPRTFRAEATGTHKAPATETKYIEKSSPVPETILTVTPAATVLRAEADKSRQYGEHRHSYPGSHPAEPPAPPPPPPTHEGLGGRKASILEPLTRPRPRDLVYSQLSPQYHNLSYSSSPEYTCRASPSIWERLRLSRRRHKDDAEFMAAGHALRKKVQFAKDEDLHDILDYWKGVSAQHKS
# Excerpt: as §1, §2
# HEK293A polyclonal cells stably expressing either Elfn1 or empty vector were passaged in media (Dulbecco’s modified Eagle medium (DMEM), supplemented with 10% fetal bovine serum (FBS), 20 mM N-(2-hydroxyethyl)-piperazine-N′-ethanesulfonic acid (HEPES), 1 mM Na pyruvate, 2 mM Glutamax, 0.1 mM nonessential amino acids, 1× antibiotic/antimycotic) under G418 (700 μg/mL) selection to maintain expression.
# as §3
# as §4, with “NJ). Data were acquired at 1 Hz (excitation 470 ± 20 nm, emission 540 ± 30 nm) for 10 s, followed by the addition of 20 μL/well of 10 μM NAM/PAM/DMSO, followed by an additional 4 min of data collection.” for “NJ).”, “Prism.” for “Prism. Basal activity was calculated with data points at the three lowest test concentrations. Maximum activity was calculated with data points at two highest concentrations. All experiments were replicated at least three times in duplicate or triplicate.”
# [1] = agonist alone (DMSO row of Table 2)
# [2] = agonist alone (DMSO row of Table S1)
compound,measurement,setting,value
"N[C@@H](CCP(=O)(O)O)C(=O)O [L-AP4, L-2-amino-4-phosphonobutyric acid, reference compound]",EC50,rat mGlu7; [1],195 µM
same,EC50,rat mGlu7; [2],240 µM
same,EC50,mGlu7/Elfn1; [1],324 µM
same,EC50,mGlu7/Elfn1; [2],200 µM
same,maximal response to L-AP4 with Elfn1 versus pcDNA3,"mGlu7/Elfn1; eight experiments, p < 0.001",significantly reduced
same,pEC50 of L-AP4 with Elfn1 versus pcDNA3,"mGlu7/Elfn1; eight experiments, p < 0.01",significantly reduced
